The target in data set [1] is T1, Phosphofructokinase (PFK), purified from rabbit skeletal muscle (Oryctolagus cuniculus, UniProt P00511).
T1 construct: gene PFKM
T1 sequence (P00511 2-780): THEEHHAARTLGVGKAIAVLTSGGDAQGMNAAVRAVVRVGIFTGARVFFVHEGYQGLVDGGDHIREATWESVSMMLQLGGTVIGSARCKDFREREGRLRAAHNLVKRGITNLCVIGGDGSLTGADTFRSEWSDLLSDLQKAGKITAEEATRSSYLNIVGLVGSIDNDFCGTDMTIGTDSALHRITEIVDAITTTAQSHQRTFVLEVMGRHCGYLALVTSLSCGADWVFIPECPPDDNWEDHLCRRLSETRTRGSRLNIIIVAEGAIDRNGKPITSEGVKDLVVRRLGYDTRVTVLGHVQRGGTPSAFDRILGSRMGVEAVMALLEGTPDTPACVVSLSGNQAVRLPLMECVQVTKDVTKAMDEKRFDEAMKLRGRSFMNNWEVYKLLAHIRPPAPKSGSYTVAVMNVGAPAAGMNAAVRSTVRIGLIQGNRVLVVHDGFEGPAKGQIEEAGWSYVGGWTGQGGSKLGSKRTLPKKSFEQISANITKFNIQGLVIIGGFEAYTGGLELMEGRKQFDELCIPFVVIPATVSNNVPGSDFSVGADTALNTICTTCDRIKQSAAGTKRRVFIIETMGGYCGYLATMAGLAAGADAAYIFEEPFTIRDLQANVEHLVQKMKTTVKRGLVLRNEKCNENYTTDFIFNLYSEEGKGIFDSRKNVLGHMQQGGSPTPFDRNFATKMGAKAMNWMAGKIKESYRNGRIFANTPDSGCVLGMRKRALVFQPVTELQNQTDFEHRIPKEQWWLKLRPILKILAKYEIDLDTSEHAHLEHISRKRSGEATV
The data set is described as follows: radiometric assay of purified PFK ([γ-32P]ATP); supported by intrinsic fluorescence center-of-mass shift (tetramer to dimer). In kind it is biochemical.

Data set [2] concerns the molecule itself. The experiment in a line: intrinsic fluorescence spectra (center of mass); purified PFK incubated 1 h with 0, 25, 50, 100 and 200 uM EGCG; conditions as for the radioassay (50 mM Tris-HCl pH 7.4, 5 mM MgCl2, 5 mM (NH4)2SO4, 1 mM F6P, 1 mM ATP, 1 mg/ml purified PFK); excitation 280 nm, emission 300-400 nm; tetramer to dimers.

The term IC50 denotes the concentration that inhibits the measured activity by half. A word on the stoichiometry N: it is the number of molecules, sites or subunits per partner or assembly.

As to `O=C(O[C@@H]1Cc2c(O)cc(O)cc2O[C@@H]1c1cc(O)c(O)c(O)c1)c1cc(O)c(O)c(O)c1` [EGCG, epigallocatechin-3-gallate], in data set [1], the IC50 worked out at 124 µM.

B1: Phosphofructokinase (PFK) purified from rabbit skeletal muscle (enzyme, UniProt P00511 1-780, looked up)
chain: MTHEEHHAARTLGVGKAIAVLTSGGDAQGMNAAVRAVVRVGIFTGARVFFVHEGYQGLVDGGDHIREATWESVSMMLQLGGTVIGSARCKDFREREGRLRAAHNLVKRGITNLCVIGGDGSLTGADTFRSEWSDLLSDLQKAGKITAEEATRSSYLNIVGLVGSIDNDFCGTDMTIGTDSALHRITEIVDAITTTAQSHQRTFVLEVMGRHCGYLALVTSLSCGADWVFIPECPPDDNWEDHLCRRLSETRTRGSRLNIIIVAEGAIDRNGKPITSEGVKDLVVRRLGYDTRVTVLGHVQRGGTPSAFDRILGSRMGVEAVMALLEGTPDTPACVVSLSGNQAVRLPLMECVQVTKDVTKAMDEKRFDEAMKLRGRSFMNNWEVYKLLAHIRPPAPKSGSYTVAVMNVGAPAAGMNAAVRSTVRIGLIQGNRVLVVHDGFEGPAKGQIEEAGWSYVGGWTGQGGSKLGSKRTLPKKSFEQISANITKFNIQGLVIIGGFEAYTGGLELMEGRKQFDELCIPFVVIPATVSNNVPGSDFSVGADTALNTICTTCDRIKQSAAGTKRRVFIIETMGGYCGYLATMAGLAAGADAAYIFEEPFTIRDLQANVEHLVQKMKTTVKRGLVLRNEKCNENYTTDFIFNLYSEEGKGIFDSRKNVLGHMQQGGSPTPFDRNFATKMGAKAMNWMAGKIKESYRNGRIFANTPDSGCVLGMRKRALVFQPVTELQNQTDFEHRIPKEQWWLKLRPILKILAKYEIDLDTSEHAHLEHISRKRSGEATV
notes: Phosphofructokinase from rabbit skeletal muscle (muscle-type ATP-dependent 6-phosphofructokinase); no identifier or residues printed; The number of copies therefore depends on the condition; also called purified PFK; PFK1; source: purified from rabbit skeletal muscle
For B1, in data set [2], the “stoichiometry N” value was 2.

The record behind these values is publication PMC4923908, “In vitro and in vivo study of epigallocatechin-3-gallate-induced apoptosis in aerobic glycolytic hepatocellular carcinoma cells involving inhibition of phosphofructokinase activity” (Scientific Reports, 2016).
